Laboratory results: paper PMC11547576, “Identification of a New Promising BAG3 Modulator Featuring the Imidazopyridine Scaffold” (Molecules, 2024)

How the values were obtained:
BAG3 full-length = biological target: T1, BAG3 full-length (Homo sapiens, UniProt O95817); assay: SPR assay on BAG3 full-length protein; settings: Biacore T200, 0 to 100 µM, 25 °C, 1:1 interaction model, n.b. = no binding, read-out: BAG3 FULL KD (µM) ± SD
T1 construct: both the full-length BAG3 protein and its BAG domain; purchased Novus Biologicals (Littleton, CO, USA)
Protocol: In this study, we employed SPR experiments to evaluate the interactions between synthesized compounds (1–14) and both the full-length BAG3 protein and its BAG domain. Only the compounds that successfully bound to the full-length BAG3 protein were tested for their interaction with the BAG domain. Protein immobilization was achieved using the amide coupling method, and the compounds were tested at ten different concentrations, ranging from 0 to 100 µM. A known binder of BAG3-BD, LK4 ((Z)-ethyl 2-(5-(3,4-dihydroxybenzylidene)-2,4-dioxothiazolidin-3yl)acetate), was used as a positive control. […] Compound 14 also bound the target but with slightly higher KD values, still within the micromolar range. The three identified compounds were further investigated to understand whether this binding induced an effect on BAG3 protein functions. The KD values reported in Table 1 for the known inhibitor LK4 differ from those in previous studies due to the use of a newer-generation instrument for the SPR experiments. The earlier experiments utilized the Biacore 3000, whereas the current study employed the Biacore T200. While ligand binding was confirmed in both sets of experiments, the slightly different KD values are attributed to the enhanced sensitivity of the Biacore T200.
Recombinant human BAG3 protein (Bcl2-associated athanogene 3) was sourced from Novus Biologicals (Littleton, CO, USA), while the BAG3 domain (BAG3-BD) was procured from ARETA International S.r.l. (Gerenzano, Italy). We utilized (Z)-ethyl 2-(5-(3,4-dihydroxybenzylidene)-2,4-dioxothiazolidin-3-yl)acetate (LK4), a known BAG3 inhibitor previously identified by our group. Surface Plasmon Resonance (SPR) spectroscopy was employed to assess the affinity of synthesized molecules for BAG3 and BAG-BD using a Biacore T200 optical biosensor equipped with CM5 sensor chips (Cytiva, Marlborough, MA, USA). BAG3 and BAG-BD were immobilized on the CM5 sensor chip using standard amine-coupling protocols. BAG3 protein (0.067 μg/μL in 10 mM CH3COONa, pH 4.5) was immobilized at a flow rate of 10 μL/min, resulting in a density of 14 kRU. The BAG3 domain (0.38 μg/μL in 10 mM CH3COONa, pH 4.5) was immobilized under similar conditions, achieving a density of 4 kRU. For the experiments, BAG3 and BAG-BD surfaces, along with an unmodified reference surface, were prepared for simultaneous analyses.
Compounds 1–14 and LK4 were dissolved to 10 mM in 100% DMSO and then diluted 1:20 (v/v) in PBS-P buffer (0.2 M phosphate buffer, 27 mM KCl, 1.37 M NaCl, 0.5% surfactant P20) to achieve a final DMSO concentration of 5.0%. These compounds were injected in a concentration series (1:2 dilution, 10 different concentrations) ranging from 0 to 100 μM, prepared in 96-well plates. SPR experiments were conducted at 25 °C with a flow rate of 20 μL/min, featuring 90 s of association and 400 s of dissociation monitoring. Changes in mass, reflected as resonance units (RU), were recorded to determine binding responses. KD values were calculated using Biaevaluation software 3.2 by globally fitting the double-referenced association and dissociation data to a 1:1 interaction model. See Supplementary Materials for all the sensorgrams (Figures S43–S50).

HeLa cells = assay: Annexin V-FITC/PI staining apoptosis assay (FACS); assay type: cell-based, human; settings: 72 h
Protocol: Given BAG3’s well-documented anti-apoptotic role, annexin V-FITC/PI staining was performed to evaluate the effects of compound 10 on cell apoptosis. […] Specifically, at 50 µM, 81.0 ± 3.89% of the cells were apoptotic (p < 0.001 vs. Ctrl); at 30 µM, 70.5 ± 4.56% were apoptotic (p < 0.01 vs. Ctrl); and at 20 µM, 51.5 ± 2.23% were apoptotic (p < 0.05 vs. Ctrl) (Figure 3A,B).
Apoptosis of the cells was assessed using the Annexin V-FITC/PI reagents. Hela cells (20 × 10^3) were seeded into 24-well plates and incubated for 72 h with compound 10. After treatment, the collected cells were resuspended in a 100 μL assay buffer, then 5 μL Annexin V-FITC and 1 μL PI reagents were added following an incubation for 20 min at RT according to the manufacturer’s protocol (Dead Cell Apoptosis Kits with Annexin V for Flow Cytometry, Thermo Fisher Scientific). The cells were analyzed with a Becton Dickinson FACScan flow cytometer using the Cell Quest software, version 4 (Franklin Lakes, NJ, USA). See Supplementary Materials for the data plots (Figure S54).

caspase 3 = assay: Western blot of caspase 3 expression and cleavage; assay type: cell-based, human; settings: HeLa cells, 72 h, 50, 30 and 20 µM
Protocol: Furthermore, we investigated the expressions of caspases, key mediators of programmed cell death, in HeLa cells treated with compound 10 at the same concentrations used in the previous assays. […] To further confirm the pro-apoptotic mechanism induced by compound 10, Western blotting was performed to measure the expression and cleavage of caspase 3 [38, 39].
The HeLa cell line was seeded in 60 mm culture dishes (20 × 104) and treated with compound 10 (50, 30, 20 μM) for 72 h. After treatments, the cells were washed twice, detached with a scraper, and centrifuged for 10 min (400× g, 4 °C) to remove debris. Total proteins were extracted by lysis buffer (20 mM Tris-HCl pH 7.5, 150 mM NaCl, 1 mM Na2EDTA, 1 mM EGTA, 2% NP-40, 1% sodium deoxycholate, 1× protease, and phosphatase inhibitor cocktail) for 30 min. […] Protein concentration was determined by the Bradford assay using bovine serum albumin as standard. […]
After washes in PBS/Tween-20 0.1% the appropriate anti-rabbit or anti-mouse (1:5000, Pierce, Thermo Fisher Scientific) peroxidase-linked secondary antibody was added for 1 h at room temperature. Antigen–antibody complexes were detected through enhanced chemiluminescence using LAS 4000 (GE Healthcare, Chicago, IL, USA) and a densitometry analysis of the autoradiographs was performed by using the ImageJ program, version 1.47 [38, 39]. […]

T1 sequence (O95817 whole entry, the tested form may be a part): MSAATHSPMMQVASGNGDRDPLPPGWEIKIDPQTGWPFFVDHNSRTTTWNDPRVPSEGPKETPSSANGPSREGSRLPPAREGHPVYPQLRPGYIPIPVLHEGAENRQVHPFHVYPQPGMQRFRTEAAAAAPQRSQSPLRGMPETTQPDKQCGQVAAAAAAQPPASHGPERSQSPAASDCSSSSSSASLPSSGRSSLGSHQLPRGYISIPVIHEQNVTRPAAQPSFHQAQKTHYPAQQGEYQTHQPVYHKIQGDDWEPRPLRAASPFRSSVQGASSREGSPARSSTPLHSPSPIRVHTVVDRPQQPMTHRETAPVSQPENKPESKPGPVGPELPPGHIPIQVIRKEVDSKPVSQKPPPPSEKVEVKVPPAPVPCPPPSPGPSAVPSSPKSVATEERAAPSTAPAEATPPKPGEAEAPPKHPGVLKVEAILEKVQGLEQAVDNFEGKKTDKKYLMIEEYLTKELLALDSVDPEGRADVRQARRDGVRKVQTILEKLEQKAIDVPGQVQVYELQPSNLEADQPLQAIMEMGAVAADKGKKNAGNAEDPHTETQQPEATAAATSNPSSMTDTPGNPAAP

CC(C)Nc1c(-c2ccccc2Br)nc2ccc(Cl)cn12 [Compound 10, 2-(2-bromophenyl)-6-chloro-N-isopropylimidazo[1,2-a]pyridin-3-amine]
Kd (BAG3 full-length): 33.5 ± 0.21 µM
apoptotic cells (HeLa cells; 20 µM): 51.5 ± 2.23%
apoptotic cells (HeLa cells; 30 µM): 70.5 ± 4.56%
apoptotic cells (HeLa cells; 50 µM): 81.0 ± 3.89%
expression of procaspase 3 (caspase 3): increased expression of procaspase 3
levels of cleaved caspase 3 (caspase 3): elevated levels of cleaved caspase 3 in a dose-dependent manner
